We go through 18 molecules from patent US20260242352A1, “INHIBITION OF SHIP1 AS A THERAPEUTIC STRATEGY FOR THE TREATMENT OF ALZHEIMER'S DISEASE” (The Trustees of Indiana University, priority 2022, published 2026).

The assay addresses T1, HiBit-labeled full length SHIP1 protein (Homo sapiens, UniProt Q92835).
T1 construct: thermal stability of a HiBit-labeled full length SHIP1 protein in intact cells; expressed in transfected cells; host or cells: HMC3 (stably transfected)
T1 sequence (Q92835 1-1189): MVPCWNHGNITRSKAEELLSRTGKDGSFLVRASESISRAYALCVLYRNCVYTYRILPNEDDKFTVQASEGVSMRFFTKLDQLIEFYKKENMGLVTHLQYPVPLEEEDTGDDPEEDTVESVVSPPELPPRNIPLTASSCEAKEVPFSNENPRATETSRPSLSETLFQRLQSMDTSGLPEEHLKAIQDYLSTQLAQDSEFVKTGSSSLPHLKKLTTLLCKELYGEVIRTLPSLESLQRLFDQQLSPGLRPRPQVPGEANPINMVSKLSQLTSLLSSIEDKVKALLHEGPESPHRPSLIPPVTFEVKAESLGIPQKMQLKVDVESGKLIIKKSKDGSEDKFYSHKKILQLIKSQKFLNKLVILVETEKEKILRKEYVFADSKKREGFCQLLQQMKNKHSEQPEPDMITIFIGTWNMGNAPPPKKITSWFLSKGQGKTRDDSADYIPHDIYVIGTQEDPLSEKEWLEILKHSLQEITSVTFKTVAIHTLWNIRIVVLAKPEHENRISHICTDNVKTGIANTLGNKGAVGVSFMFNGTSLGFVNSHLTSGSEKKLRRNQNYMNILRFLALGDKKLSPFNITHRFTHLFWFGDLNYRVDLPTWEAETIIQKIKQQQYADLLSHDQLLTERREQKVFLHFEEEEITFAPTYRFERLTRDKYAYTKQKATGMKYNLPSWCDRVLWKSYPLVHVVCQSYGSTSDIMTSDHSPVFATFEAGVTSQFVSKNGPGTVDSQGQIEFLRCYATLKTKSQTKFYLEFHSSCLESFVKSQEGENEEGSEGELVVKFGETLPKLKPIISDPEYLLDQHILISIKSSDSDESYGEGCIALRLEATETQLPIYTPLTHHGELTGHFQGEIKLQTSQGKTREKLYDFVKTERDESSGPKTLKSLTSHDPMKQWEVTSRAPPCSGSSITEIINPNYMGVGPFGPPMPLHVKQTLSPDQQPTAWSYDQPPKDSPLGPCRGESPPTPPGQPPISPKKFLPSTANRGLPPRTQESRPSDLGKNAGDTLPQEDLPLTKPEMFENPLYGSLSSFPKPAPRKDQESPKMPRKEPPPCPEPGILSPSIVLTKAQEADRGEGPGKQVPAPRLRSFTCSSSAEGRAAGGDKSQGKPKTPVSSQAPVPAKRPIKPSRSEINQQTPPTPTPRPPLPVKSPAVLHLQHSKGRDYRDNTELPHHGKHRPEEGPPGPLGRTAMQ
As to the kind of experiment: Cellular thermal shift assay (SplitLuc CETSA), thermal shift format. In kind it is cell-based. The arrangement: key: Y = ΔTm difference of 40 μM compound treated cells from control is Tm > 3SD; N: otherwise negative. As to conditions: 40 μM compound for 60 min, HMC3/HiBit-INPP5D cells, 38-52° C. gradient; target engagement positive/negative. On the procedure: Cellular thermal shift assay (CETSA). […] This assay was run in the following two formats with HMC3/HiBit-INPP5D stably transfected cells.
1. Thermal shift: cells were treated with 40 μM compound for 60 min, then heated with a temperature gradient covering 38-52° C. for 3 min before luminescence detection. Mean and standard deviation of control Tm were determined to generate a “Mean+3SD” ΔTm, which was used as threshold to determine a significant ΔTm of compound from control. When the difference of ΔTm of compound treated cells from control Tm>3SD, the compound was considered positive for target engagement, otherwise negative. SD=average standard deviation.
See Martinez et al. (2018) Sci Rep 8: p. 9472; Oh-Hashi et al. (2017) Biochem Biophys Rep 12: pp. 40-45. This assay was run in the following two formats with HMC3/HiBit-INPP5D stably transfected cells.
Thermal shift: cells were treated with 40 μM compound for 60 min, then heated with a temperature gradient covering 38-52° C. for 3 min before luminescence detection. Mean and standard deviation of control Tm were determined to generate a “Mean+3SD” ΔTm, which was used as threshold to determine a significant ΔTm of compound from control. When the difference of ΔTm of compound treated cells from control Tm>3SD, the compound was considered positive for target engagement, otherwise negative. SD=average standard deviation.
In the case of `CC(C)(C)OC(=O)N1CCC(n2cc(-c3cncc(OCc4ccccc4Cl)c3)cn2)CC1` [Compound 1, tert-butyl 4-(4-{5-[(2-chlorophenyl)methoxy]pyridin-3-yl}-1H-pyrazol-1-yl)piperidine-1-carboxylate], the “CETSA SP” value is reported as “N”. For `CC(C)(C)OC(=O)N1CCC(n2cc(-c3cncc(OCc4ccccc4F)c3)cn2)CC1` [Compound 2, tert-butyl 4-(4-(5-((2-fluorobenzyl)oxy)pyridin-3-yl)-1H-pyrazol-1-yl)piperidine-1-carboxylate], the “CETSA SP” value is on record as “N”. Regarding `Cc1ccccc1COc1cncc(-c2cnn(C3CCN(C(=O)OC(C)(C)C)CC3)c2)c1` [Compound 3, tert-butyl 4-(4-(5-((2-methylbenzyl)oxy)pyridin-3-yl)-1H-pyrazol-1-yl)piperidine-1-carboxylate], the “CETSA SP” value is “N”.

With `CC(C)(C)OC(=O)N1CCC(n2cc(-c3cncc(OCc4ccccc4)c3)cn2)CC1` [Compound 4, tert-butyl 4-(4-(5-(benzyloxy)pyridin-3-yl)-1H-pyrazol-1-yl)piperidine-1-carboxylate], the “CETSA SP” value was “N”.

`CC(C)(C)OC(=O)N1CCC(n2cc(-c3cncc(OCc4c(Cl)cccc4Cl)c3)cn2)CC1` [Compound 5, tert-butyl 4-(4-(5-((2,6-dichlorobenzyl)oxy)pyridin-3-yl)-1H-pyrazol-1-yl)piperidine-1-carboxylate]: the “CETSA SP” value is recorded as “N”. Turning to `CC(C)(C)OC(=O)N1CCC(n2cc(-c3cncc(OCc4ccc(Br)cc4)c3)cn2)CC1` [Compound 7, tert-butyl 4-(4-(5-((4-bromobenzyl)oxy)pyridin-3-yl)-1H-pyrazol-1-yl)piperidine-1-carboxylate], the “CETSA SP” value is on record as “Y*”.

In the case of `Cl.Clc1ccccc1COc1cncc(-c2cnn(C3CCNCC3)c2)c1` [Compound 9, 3-((2-chlorobenzyl)oxy)-5-(1-(piperidin-4-yl)-1H-pyrazol-4-yl)pyridine hydrochloride], the “CETSA SP” value is “Y”. For `Cl.Clc1ccc(COc2cncc(-c3cnn(C4CCNCC4)c3)c2)c(Cl)c1` [Compound 10, 3-((2,4-dichlorobenzyl)oxy)-5-(1-(piperidin-4-yl)-1H-pyrazol-4-yl)pyridine hydrochloride], the “CETSA SP” value was “Y”. For `CC(C)(C)CCN1CCC(n2cc(-c3cncc(OCc4ccccc4Cl)c3)cn2)CC1` [Compound 15, 3-((2-chlorobenzyl)oxy)-5-(1-(1-(3,3-dimethylbutyl)piperidin-4-yl)-1H-pyrazol-4-yl)pyridine] the value was “N”. As to `CC(C)(C)CC(=O)N1CCC(n2cc(-c3cncc(OCc4ccccc4Cl)c3)cn2)CC1` [Compound 16, 1-(4-(4-(5-((2-chlorobenzyl)oxy)pyridin-3-yl)-1H-pyrazol-1-yl)piperidin-1-yl)-3,3-dimethylbutan-1-one], the “CETSA SP” value was “N”. Take `C[C@H](Oc1cncc(-c2cnn(C3CCNCC3)c2)c1)c1ccccc1Cl` [Compound 21, (S)-3-(1-(2-chlorophenyl)ethoxy)-5-(1-(piperidin-4-yl)-1H-pyrazol-4-yl)pyridine]: the “CETSA SP” value was “Y”. In the case of `C[C@@H](Oc1cncc(-c2cnn(C3CCNCC3)c2)c1)c1ccccc1Cl` [Compound 22, (R)-3-(1-(2-chlorophenyl)ethoxy)-5-(1-(piperidin-4-yl)-1H-pyrazol-4-yl)pyridine], the “CETSA SP” value is reported as “Y”.

`C[C@@H](Oc1cncc(-c2cnn(C3CCNCC3)c2)c1)c1ccc(Cl)cc1` [Compound 23, (R)-3-(1-(4-chlorophenyl)ethoxy)-5-(1-(piperidin-4-yl)-1H-pyrazol-4-yl)pyridine]: the “CETSA SP” value was “Y”. As to `Cc1ccccc1COc1cncc(-c2cnn(C3CCNCC3)c2)c1` [Compound 25, 3-[(2-Methylphenyl)methoxy]-5-[1-(piperidin-4-yl)-1H-pyrazol-4-yl]pyridine], the “CETSA SP” value is given as “Y”. Turning to `Clc1ccccc1COc1cncc(-c2ccn(C3CCNCC3)n2)c1` [Compound 26, 3-((2-chlorobenzyl)oxy)-5-(1-(piperidin-4-yl)-1H-pyrazol-3-yl)pyridine], the “CETSA SP” value is “Y”. As for `Clc1ccccc1COc1cncc(-n2ccc(C3CCNCC3)n2)c1` [Compound 27, 3-((2-chlorobenzyl)oxy)-5-(3-(piperidin-4-yl)-1H-pyrazol-1-yl)pyridine], the “CETSA SP” value is reported as “Y”. With `Clc1ccccc1COc1cncc(-n2cc(C3CCNCC3)cn2)c1` [Compound 28, 3-((2-chlorobenzyl)oxy)-5-(4-(piperidin-4-yl)-1H-pyrazol-1-yl)pyridine], the “CETSA SP” value is “Y”. For `Clc1ccccc1COc1cccc(-c2cnn(C3CCNCC3)c2)c1` [Compound 29, 4-(4-(3-((2-chlorobenzyl)oxy)phenyl)-1H-pyrazol-1-yl)piperidine], the “CETSA SP” value is “N”.
